Several values for one entry are separate records, joined by “and”; a condition that tells them apart may be missing. Equal values may be shown once. Read-outs that look alike come from different tables or passages of the source.
What was measured:
wheat callus cultures = conditions: for 1 shoot/callus / 2 shoots/callus / 3 shoots/callus / 4 shoots/callus / Regenerable callus, # / Regenerable callus, % / Shoots, #: no glyphosate; for Shoots, #: two experiments
Experimental: Five treatments were done: 1) control (0.1 μM Cu as in MS medium) without additional copper; 2) 2 μM copper, applied at delay and selection for 2 weeks total; 3) 2 μM Cu at 1st regeneration for 2 weeks; 4) 2 μM Cu at 2nd regeneration for 2 or more weeks; and 5) 2 μM Cu constantly present at all of these stages.

[1] = tested on: immature embryos of wheat (Triticum aestivum L) cv Bobwhite; experiment: Agrobacterium-mediated wheat transformation, glyphosate selection (transformation efficiency); format: cell-based; conditions: for Over all % TE / Total Ind. Events: six experiments; for Transgenic #: Expt. 309 and Expt. 314
[2] = tested on: immature embryos of wheat; experiment: Agrobacterium-mediated wheat transformation, nptII (G418/kanamycin) selection (transformation efficiency); format: cell-based, Triticum aestivum L
Description: Immature embryos of wheat (Triticum aestivum L) cv Bobwhite were isolated from the immature caryopsis (wheat spikelets) 12-15 days after pollination, and cultured on CM4C (Table 2) for 1-8 days, most typically for 4-6. The embryos without embryogenic callus were selected for Agrobacterium inoculation.
A disarmed Agrobacterium strain C58 (ABI) harboring a binary vector was used for all the experiments. […] The Agrobacterium cells were resuspended in the inoculation medium and the density was adjusted to an OD660 of 1. […] An equal amount of the Agrobacterium cell suspension was added such that the final concentration of Agrobacterium cells was an OD660 of 0.5. In most experiments, pluronic F68 was added to the inoculation mixture at a final concentration of 0.01%. The ratio between the Agrobacterium and immature embryos (IEs) was about 10 mL: 20-200 IEs. The conditions for inoculation were temperatures from about 23° C.-26° C. with a duration from about 5-60 minutes.
After the inoculation period, the remaining Agrobacterium cells were removed from the explants by using the in-house vacuum equipment. A piece of sterile Whatman No. 1 filter paper (to fit the size of the petri plate) was placed in each of 60×15 or 60×20 mm petri dishes without additional liquid or agar-supplemented media. Two hundred microliters of sterile water was placed in the middle of the filter paper. After 2-3 minutes, the inoculated immature embryos were placed in the plates. Usually, 20-50 explants are grouped as one stack (about 1 cm in size and 60-80 mg/stack), with 4-5 stacks on each plate. The plates were immediately parafilmed and then co-cultivated in the dark at 24° C.-26° C. for 2-3 days.
For nptII selection, immature embryos were isolated, precultured, inoculated, and co-cultured as previously described. After the 3-day co-culture, embryos were transferred to delay culture (solid CM4C2D) media (CM4C media as in Table 2 with 2 mg/L 2,4-D) with 500 mg/L carbenicillin for 7 days in the dark at 25° C. Selection was done in liquid CM4C media (as in Table 2 without the Phytagel) with 100 mg/L carbenicillin and 20 mg/L G418 on a support for 7 days in the dark followed by 7 days in the light (16 hr photoperiod), at 25° C. The calli were then transferred to liquid MMS0.2C media (as in Table 2 without the gelling agent) with 100 mg/L carbenicillin and 25 mg/L G418 on a support for 2 weeks at 25° C. with a 16 hr photoperiod. After 2 weeks, the calli were transferred to liquid MMSOC media (as in Table 2 without the gelling agent) with 100 mg/L carbenicillin and 25 mg/L G418 on a support for 2 to 4 weeks at 25° C. with a 16 hr photoperiod. Plantlets were transferred to solid MMSOC media with 100 mg/L carbenicillin and 25 mg/L G418 in sundae cups for 1 to 4 weeks at 25° C. with a 16 hr photoperiod.

[3] = 2 μM Cu at 2nd Reg. (MMS0C), 2 w.
[4] = Table 16: 250 μM CuSO4 in MMS0C
[5] = Table 16: 500 μM CuSO4 in MMS0C
[6] = Table 16: 750 μM CuSO4 in MMS0C
[7] = Table 16: 1000 μM CuSO4 in MMS0C
[8] = Table 16: 1500 μM CuSO4 in MMS0C
[9] = Table 16: 2000 μM CuSO4 in MMS0C
[10] = Table 16: 3000 μM CuSO4 in MMS0C

Structure (SMILES): O=S(=O)([O-])[O-].[Cu+2] [CuSO4, copper sulfate]
- 1 shoot/callus (wheat callus cultures; 2 μM Cu at 1st Reg., 2 w.): 11.8
- 2 shoots/callus (wheat callus cultures; 2 μM Cu at 1st Reg., 2 w.): 9.3
- 3 shoots/callus (wheat callus cultures; 2 μM Cu at 1st Reg., 2 w.): 3.3
- 4 shoots/callus (wheat callus cultures; 2 μM Cu at 1st Reg., 2 w.): 1.3
- Regenerable callus, # (wheat callus cultures; 2 μM Cu at 1st Reg., 2 w.): 30.5
- Regenerable callus, % (wheat callus cultures; 2 μM Cu at 1st Reg., 2 w.): 61%
- Shoots, # (wheat callus cultures; 2 μM Cu at 1st Reg., 2 w.): 44
- effect on regeneration (wheat callus cultures; 2 μM Cu at 1st regeneration stage): very little or no effect
- Regenerable callus, # (wheat callus cultures; [3]): 40
- Regenerable callus, % (wheat callus cultures; [3]): 80%
- Shoots, # (wheat callus cultures; [3]): 80.5
- 2 shoots/callus (wheat callus cultures; 2 μM Cu at 2nd Reg., 2 w.): 12.5
- 3 shoots/callus (wheat callus cultures; 2 μM Cu at 2nd Reg., 2 w.): 9.8
- 4 shoots/callus (wheat callus cultures; 2 μM Cu at 2nd Reg., 2 w.): 4.3
- effect on regeneration (wheat callus cultures; 2 μM Cu at 2nd regeneration stage): most significant increase in regeneration
- 1 shoot/callus (wheat callus cultures; 2 μM Cu at Delay/Sel., 2 w.): 14.3
- 2 shoots/callus (wheat callus cultures; 2 μM Cu at Delay/Sel., 2 w.): 8.5
- 3 shoots/callus (wheat callus cultures; 2 μM Cu at Delay/Sel., 2 w.): 7.8
- 4 shoots/callus (wheat callus cultures; 2 μM Cu at Delay/Sel., 2 w.): 0.5
- Regenerable callus, # (wheat callus cultures; 2 μM Cu at Delay/Sel., 2 w.): 35.6
- Regenerable callus, % (wheat callus cultures; 2 μM Cu at Delay/Sel., 2 w.): 71%
- Shoots, # (wheat callus cultures; 2 μM Cu at Delay/Sel., 2 w.): 57.5
- 1 shoot/callus (wheat callus cultures; 2 μM Cu at all stages, 6 w.): 9
- 2 shoots/callus (wheat callus cultures; 2 μM Cu at all stages, 6 w.): 11.5
- 3 shoots/callus (wheat callus cultures; 2 μM Cu at all stages, 6 w.): 2.5
- 4 shoots/callus (wheat callus cultures; 2 μM Cu at all stages, 6 w.): 0.5
- Regenerable callus, # (wheat callus cultures; 2 μM Cu at all stages, 6 w.): 30.5
- Regenerable callus, % (wheat callus cultures; 2 μM Cu at all stages, 6 w.): 61%
- Shoots, # (wheat callus cultures; 2 μM Cu at all stages, 6 w.): 37
- effect on regeneration (wheat callus cultures; 2 μM Cu at delay and selection stage): Some improvement
- effect on regeneration (wheat callus cultures; 2 μM Cu present at all stages): No improvement
- improvement in TE (×) ([1]; 1.0 μM copper sulfate in MMS0C, experiment 309): 2.5 ×
- improvement in TE (×) ([1]; 1.0 μM copper sulfate in MMS0C, experiment 314): ~4 ×
- improvement in TE (×) ([1]; 2.0 μM copper sulfate in MMS0C, experiment 309): 3.5 ×
- improvement in TE (×) ([1]; 2.0 μM copper sulfate in MMS0C, experiment 314): ~10 ×
- TE % ([1]; CuSO4 2 μM, initial 14 days (2 weeks) of last regeneration stage (MMS0C), per experiment and Total/average of twelve, listed as Cu): 16.6%
- % TE ([1]; Table 14: 2 μM Cu in MMS0C, per experiment and Total, listed as Cu): 11.4% and 15.1% and 9.4%
- % TE ([1]; Table 14: 20 μM Cu in MMS0C, per experiment and Total, listed as Cu): 17.4% and 20.3% and 15.9%
- Over all % TE ([1]; Table 15: 20 μM CuSO4 in MMS0C): 17.6%
- Total Ind. Events ([1]; Table 15: 20 μM CuSO4 in MMS0C): 103
- % TE ([1]; Table 15: 40 μM CuSO4 in MMS0C, experiments 292, 293, 295, 296, 297, 301): 14.0% and 13.9% and 22.6% and 21.8% and 20.7% and 19.6%
- Over all % TE ([1]; Table 15: 40 μM CuSO4 in MMS0C): 18.6%
- Total Ind. Events ([1]; Table 15: 40 μM CuSO4 in MMS0C): 109
- Over all % TE ([1]; Table 15: 80 μM CuSO4 in MMS0C): 16.6%
- Total Ind. Events ([1]; Table 15: 80 μM CuSO4 in MMS0C): 98
- % TE ([1]; Table 16: 40 μM CuSO4 in MMS0C): 17.5%
- Transgenics ([1]; Table 16: 40 μM CuSO4 in MMS0C): 14
- % TE [1, 4]: 20%
- Transgenics [1, 4]: 16
- % TE [1, 5]: 24% and 23.75%
- Transgenics [1, 5]: 19
- % TE [1, 6]: 15.0%
- Transgenics [1, 6]: 12
- % TE [1, 7]: 10.0%
- Transgenics [1, 7]: 8
- % TE [1, 8]: 13.8%
- Transgenics [1, 8]: 11
- % TE [1, 9]: 11.1%
- Transgenics [1, 9]: 4
- % TE [1, 10]: 5.6%
- Transgenics [1, 10]: 2
- % TE ([1]; Table 17: 0.25 μM CuSO4 in MMS0C, both experiments): 4.8%
- Transgenic # ([1]; Table 17: 0.5 μM CuSO4 in MMS0C): 4 and 5
- % TE ([1]; Table 17: 0.5 μM CuSO4 in MMS0C, both experiments): 4.3%
- Transgenic # ([1]; Table 17: 1.0 μM CuSO4 in MMS0C): 10 and 11
- % TE ([1]; Table 17: 1.0 μM CuSO4 in MMS0C, both experiments): 10.1%
- % TE ([1]; Table 17: 2.0 μM CuSO4 in MMS0C, both experiments): 20.7%
- TE, average ([1]; copper sulfate from 20 to 80 μM inclusive in MMS0C, Table 15): 17.6%
- Independent transgenic events/explants [2]: 37/220 and 63/228 and 48/211 and 46/275 and 53/225
- % TE ([2]; 2 μM copper sulfate in MMSOC, nptII liquid system, per experiment and Totals, listed as Copper sulfate): 3.72% and 2.16% and 0.57% and 9.43% and 9.14% and 4.51% and 1.56%
- % TE ([2]; 2 μM copper sulfate in MMSOC, nptII liquid system, per experiment and Totals, listed as copper): 4.5%
- % TE ([2]; 20 μM copper sulfate in MMSOC, nptII liquid system, per experiment and Totals): 7.2%
- % TE ([2]; Table 19: compound at 2 μM in second regeneration stage (MMSOC media)): 16.8%
- % TE ([2]; Table 19: compound at 20 μM in second regeneration stage (MMSOC media)): 27.6% and 30.6% and 22.7% and 16.7% and 23.6%
- % TE ([2]; Table 19: compound at 20 μM in second regeneration stage (MMSOC media), listed as copper sulfate): 27.6% and 16.7% and 22.7%

From patent publication US20030154517A1, “Efficiency agrobacterium-mediated wheat transformation method” (priority 2001, published 2003)
